# Laboratory results published in patent US12048768B2, “Gastro-resistant controlled release oral dosage forms” (Minerva Neurosciences, Inc., priority 2017, dated 2024).
# Assays:
# [1] = Phase 2b study of MIN-101 in patients with schizophrenia (negative symptoms, cognitive function, CDSS); format: in vivo, human
# Description: The oral dosage forms used in this Phase 2b study were the 32 mg MR tablet described in Example 1 below and an essentially identical 64 mg MR tablet.
# Thus, in an aspect, administration of a gastro-resistant CR oral dosage form of the present disclosure to a patient with a diagnosis of schizophrenia is intended to improve cognitive function in the patient.
# A secondary outcome of the phase 2b study of MIN-101 discussed above was patients' performance on the Calgary Depression Scale for Schizophrenia (CDSS) ADDINGTON D, ADDINGTON J, MATICKA-TYNDALE E. ASSESSING DEPRESSION IN S CHIZOPHRENIA: THE CALGARY DEPRESSION SCALE. BRITISH JOURNAL OF PSYCHIATRY SUPPLEMENT 1993; (22):39-44. The CDSS has little overlap with positive and negative symptoms and has become the recommended scale to assess the severity of depression in patients with schizophrenia. In the phase 2b study, the severity of symptoms as measured by the CDSS was reduced following treatment with 32 or 64 mg of MIN-101 compared to placebo. […] Thus, since the effects of MIN-101 on negative symptoms and depression symptoms in schizophrenia patients were largely independent of each other, MIN-101 has the potential to alleviate one or more depression symptoms in patients who are not schizophrenic.
# [2] = as disclosed in U.S. Pat. No. 9,458,130; cited from earlier work
# [3] = human, in vivo
structure (smiles),measurement,setting,value
"Cl.O.O.O=C(CN1CCC(CN2Cc3ccccc3C2=O)CC1)c1ccc(F)cc1 [MIN-101, 1H-Isoindol-1-one, 2-[[1-[2-(4-Fluorophenyl)-2-oxoethyl]-4-piperidinyl]methyl]-2,3-dihydro-, hydrochloride, hydrate (1:1:2)]",Cognitive function,[1]; phase 2b study,improvement in cognitive function
same,Negative symptoms in patients with schizophrenia,"[1]; phase 2b, 32 mg and 64 mg MR tablets","rapid, statistically significant and clinically meaningful reductions in negative symptoms"
same,Severity of depression symptoms as measured by the CDSS,"[1]; phase 2b, 32 or 64 mg compared to placebo",reduced
same,QT prolongation in patients,[2],has been observed
same,Plasma levels of BFB-520 in CYP2D6 poor metabolizers,[3],high plasma levels of BFB-520
